In US11918628B2, “Controlled-release PTH compound” (ASCENDIS PHARMA BONE DISEASES A/S, priority 2016, dated 2024):

Columns and labels:
[1] = test system: TPTx rats; test: 28-days study in thyroparathyroidectomised (TPTx) rats with daily subcutaneous injections of conjugate 18 or PTH(1-84); format: in vivo, rat
Method: Quantitative measurements of serum calcium (sCa), urinary calcium and serum phosporous (sP) were performed on a Roche-Hitachi P800 modular biochemistry instrument.
This study was performed in order to test and compare the effect of daily subcutaneous injection of compound 18 and PTH(1-84), the current standard of care, in an animal disease model relevant for investigating treatment of hypoparathyroidism (HP). Rats subjected to thyroparathyroidectomy (TPTx) by blunt dissection are unable to produce parathyroid hormone, PTH, the major regulator of calcium homeostasis. […] 17 weeks old female SD TPTx rats (n=9/group) were dosed subcutaneously for 28 days with compound 18 ([…]; 1.2 nmol/kg/d, in 10 mM succinic acid, 46 g/L mannitol, pH 4.0), PTH(1-84) (70 μg PTH eq/kg/d; 7.3 nmol/kg/d; in 10 mM citrate, mannitol 39.0 g/L, pH 5.0) or vehicle. Additionally, one group of sham operated rats (n=9) representing normophysiological background control were also given vehicle. Serum calcium (sCa) and phosporous (sP) levels in the animals were measured pre- and post-dose on days 1, 6, 12 and 27. Moreover, bone turnover markers (P1NP and CTx) were measured and bone quality assessed by ex vivo pQCT.

[2] = test system: patients with hypoparathyroidism; conditions: cited from earlier work
[3] = test system: patients; conditions: 6-year follow-up; cited from earlier work
[4] = test system: rats; conditions: daily injections; cited from earlier work
[5] = test system: patients with hypoparathyroidism; conditions: cited from earlier work; remark: listed apart in the source

Molecule | trabecular and cortical BMD/bone in vertebrae after 28 days of treatment ([1]; TPTx rats, 28 days daily sc) | trabecular BMD compared to both control groups ([1]; TPTx rats, 28 days daily sc, 7.3 nmol/kg/d) | sCa ratio treated/sham-control at day 12 ([1]; TPTx rats, daily sc, day 12) | effect on serum phosphorous (sP) ([1]; TPTx rats, daily sc, compound 18 1.2 nmol/kg/d, PTH(1-84) 7.3 nmol/kg/d) | effect on serum calcium (sCa) ([1]; TPTx rats, daily sc, compound 18 1.2 nmol/kg/d, PTH(1-84) 7.3 nmol/kg/d, versus vehicle-injected TPTx rats) | serum calcium (sCa) at day 12 ([1]; female SD TPTx rats, daily sc, day 12) [mg/dL] | urinary calcium excretion 2-8 hours after injection ([2]; 2-8 hours after injection) | urinary calcium excretion over the 24-hour period ([2]; 24-hour period after injection) | urinary phosphate excretion ([2]; after injection) | participants who achieved normal blood calcium levels on reduced doses of calcium supplements and active forms of vitamin D ([2]; pivotal trial, once-daily sc, adjunct to vitamin D and calcium) [%] | patients who developed hypercalcemia at one or more measurements during a 24-hour period ([2]; serum calcium monitored after injection) [%] | incidences of hypercalcemia, hypocalcemia or hypercalciuria relative to conventional therapy ([2]; treated patients) | bone mineral density (BMD) by DXA [3] | bone turnover markers [3] | osteosarcoma rate [4] | daily dose with pump delivery, lower than with the twice daily injection regimen ([5]; pump delivery versus twice daily injection) [%] | calcium levels with pump delivery ([5]; pump delivery, over 6-months) | urinary calcium excretion with pump delivery ([5]; pump delivery)
PTH(1-84): Natpara, PTH(1-84), polypeptide with the sequence of SEQ ID NO:1; the current standard of care | anabolic effect | significant increase | 0.76 | minimal decrease | did not lead to increase in sCa | 8.1 | reduced | did not change | increased only during the first 8 hours | 42 | 71 | has not demonstrated an ability to reduce | increases in lumbar spine and declines in the distal ⅓ radius | remained greater than pretreatment values | dose dependent increase | – | – | –
CC[C@H](C)[C@H](NC(=O)[C@H](CCC(=O)O)NC(=O)[C@H](CO)NC(=O)[C@@H](NC(=O)[C@@H](N)CO)C(C)C)C(=O)N[C@@H](CCC(N)=O)C(=O)N[C@@H](CC(C)C)C(=O)N[C@@H](CCSC)C(=O)N[C@@H](Cc1cnc[nH]1)C(=O)N[C@@H](CC(N)=O)C(=O)N[C@@H](CC(C)C)C(=O)NCC(=O)N[C@@H](CCCCN)C(=O)N[C@@H](Cc1cnc[nH]1)C(=O)N[C@@H](CC(C)C)C(=O)N[C@@H](CC(N)=O)C(=O)N[C@@H](CO)C(=O)N[C@@H](CCSC)C(=O)N[C@@H](CCC(=O)O)C(=O)N[C@@H](CCCN=C(N)N)C(=O)N[C@H](C(=O)N[C@@H](CCC(=O)O)C(=O)N[C@@H](Cc1c[nH]c2ccccc12)C(=O)N[C@@H](CC(C)C)C(=O)N[C@@H](CCCN=C(N)N)C(=O)N[C@@H](CCCCN)C(=O)N[C@@H](CCCCN)C(=O)N[C@@H](CC(C)C)C(=O)N[C@@H](CCC(N)=O)C(=O)N[C@@H](CC(=O)O)C(=O)N[C@H](C(=O)N[C@@H](Cc1cnc[nH]1)C(=O)N[C@@H](CC(N)=O)C(=O)N[C@@H](Cc1ccccc1)C(=O)O)C(C)C)C(C)C [PTH(1-34)] | – | – | – | – | – | – | – | – | – | – | – | – | – | – | dose dependent increase | 65 | normal, steady state calcium levels with minimal fluctuation | marked reduction
